Consider 20 molecules from US20090270350A1, “Pyridinone Pyrazole Urea and Pyrimidinone Pyrazole Urea Derivatives” (PFIZER INC., priority 2006, published 2009).

SMILES strings stand for the structures.

Sequence of p38α (Q16539 whole entry): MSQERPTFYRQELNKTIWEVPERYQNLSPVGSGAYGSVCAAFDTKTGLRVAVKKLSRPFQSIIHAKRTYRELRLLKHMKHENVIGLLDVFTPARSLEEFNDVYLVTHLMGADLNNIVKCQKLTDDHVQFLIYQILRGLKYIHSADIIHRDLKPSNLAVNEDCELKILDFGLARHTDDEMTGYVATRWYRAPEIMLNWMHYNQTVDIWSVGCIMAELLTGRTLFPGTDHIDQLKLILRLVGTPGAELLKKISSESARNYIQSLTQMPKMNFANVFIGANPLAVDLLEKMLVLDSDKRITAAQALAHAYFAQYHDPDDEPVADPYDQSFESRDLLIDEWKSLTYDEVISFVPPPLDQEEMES

The first experiment has as its target p38α (Homo sapiens, UniProt Q16539). Kind of experiment: p38α/MK2 cascade assay. The note with it: Table 1; inhibitors preincubated with p38α for 40 minutes; phosphorylation of Hsp27 peptide by MK-2, Caliper LabChip 3000; read-out: p38a/MK2 Cascade 40 min Pre-Incuabtion (% Inhibition): IC50. The class given is biochemical. The procedure:
The ability of compounds to inhibit activated p38α was determined in a p38α/MK-2 cascade assay format. The kinase activity of p38α is determined by its ability to phosphorylate/activate nonactive MK2 (54-400). Activation of MK-2 by p38α is measured by following the phosphorylation of a MK-2 specific peptide, Hsp27 peptide (FITC-KKKALSRQLSVAA). The phosphorylation of the Hsp27 peptide was quantified using the Caliper LabChip 3000. The kinase reactions were carried out in 20 mM HEPES pH 7.5, 10 mM MgCl2, 0.0005% Tween-20, 0.01% BSA, 1 mM DTT, and 2% DMSO. The inhibitors were varied between 1000-0.05 nM, while the Hsp27 peptide substrate, MgATP, and nonactive MK-2 (54-400) were held constant at 0.5 µM, 5 µM, and 1 nM, respectively. Inhibitors were preincubated with p38α for 40 minutes prior to initiating the reaction with peptide, MgATP, and MK-2. The kinase reactions were quenched after 60 minutes by the addition of stop buffer (180 mM HEPES, 30 mM EDTA, and 0.2% Coating Reagent-3).
The above protocol assay was used to determine the IC50 values for some of the compounds in the above Examples.
IC50 values were determined for the compounds listed in Table 2, using the same p38α/MK2 cascade assay used to determine the IC50 values for the compounds in Table 1. The compounds of Table 2 were prepared using methods similar to those listed in the Examples for compounds of Table 1.
In the case of `COc1cccc(Cn2c(C)cc(OCc3ccccc3CNC(=O)Nc3cc(C(C)(C)C)nn3-c3ccc(O)cc3)c(Cl)c2=O)c1` [Example 51, 1-[3-tert-butyl-1-(4-hydroxyphenyl)-1H-pyrazol-5-yl]-3-[2-({[3-chloro-1-(3-methoxybenzyl)-6-methyl-2-oxo-1,2-dihydropyridin-4-yl]oxy}methyl)benzyl]urea], the IC50 came out at 5.8 nM.
On the same count and under the same terms, with `COc1ccc(Cn2c(C)cc(OCc3ccccc3CNC(=O)Nc3cc(C(C)(C)C)nn3-c3ccc(C)cc3)c(Br)c2=O)c(OC)c1` [Example 122, 1-[2-({[3-bromo-1-(2,4-dimethoxybenzyl)-6-methyl-2-oxo-1,2-dihydropyridin-4-yl]oxy}methyl)benzyl]-3-[3-tert-butyl-1-(4-methylphenyl)-1H-pyrazol-5-yl]urea] the figure was 15.4 nM; with `COc1ccc(Cn2c(C)cc(OCc3ccccc3CNC(=O)Nc3cc(C(C)(C)C)nn3-c3ccc(O)cc3)cc2=O)cc1` [Example 54, 1-[3-tert-butyl-1-(4-hydroxyphenyl)-1H-pyrazol-5-yl]-3-[2-({[1-(4-methoxybenzyl)-6-methyl-2-oxo-1,2-dihydropyridin-4-yl]oxy}methyl)benzyl]urea], 117 nM; with `COc1cccc(Cn2c(C)cc(OCc3ccc(F)cc3CNC(=O)Nc3cc(C(C)(C)C)nn3-c3cccc(O)c3)c(Cl)c2=O)c1` [Example 50, 1-[3-tert-butyl-1-(3-hydroxyphenyl)-1H-pyrazol-5-yl]-3-[2-({[3-chloro-1-(3-methoxybenzyl)-6-methyl-2-oxo-1,2-dihydropyridin-4-yl]oxy}methyl)-5-fluorobenzyl]urea], 6.5 nM.
In the case of `Cc1ccc(-n2nc(C(C)(C)C)cc2NC(=O)NCc2cc(F)ccc2COc2cc(C)n(-c3cc(C(=O)NCCO)ccc3C)c(=O)c2Br)cc1` [Example 193, 3-{3-bromo-4-[(2-{[({[3-tert-butyl-1-(4-methylphenyl)-1H-pyrazol-5-yl]amino}carbonyl)amino]methyl}-4-fluorobenzyl)oxy]-6-methyl-2-oxopyridin-1(2H)-yl}-N-(2-hydroxyethyl)-4-methylbenzamide], the IC50 was 2.21 nM.
Still for that read-out and setting: with `CNC(=O)c1ccc(C)c(-n2c(C)cc(OCc3ccc(F)cc3CNC(=O)Nc3cc(C(C)(C)C)nn3-c3cccc(Cl)c3)c(Cl)c2=O)c1` [Example 194, 3-{4-[(2-{[({[3-tert-butyl-1-(3-chlorophenyl)-1H-pyrazol-5-yl]amino}carbonyl)amino]methyl}-4-fluorobenzyl)oxy]-3-chloro-6-methyl-2-oxopyridin-1(2H)-yl}-N,4-dimethylbenzamide] the figure was 2.45 nM; with `COc1cccc(Cn2c(C)cc(OCc3ccccc3CNC(=O)Nc3cc(C(C)(C)C)nn3-c3cccc(OC)c3)c(Cl)c2=O)c1` [Example 44, 1-[3-tert-butyl-1-(3-methoxyphenyl)-1H-pyrazol-5-yl]-3-[2-({[3-chloro-1-(3-methoxybenzyl)-6-methyl-2-oxo-1,2-dihydropyridin-4-yl]oxy}methyl)benzyl]urea], 5.8 nM.

Still in this experiment, the particulars now being: Table 2; same p38α/MK2 cascade assay; 40 minutes preincubation; read-out: p38a/MK2 Cascade 40 min Pre-Incuabtion (% Inhibition): IC50.
As for `CSc1ccccc1Cn1c(C)cc(OCc2ccccc2CNC(=O)Nc2cc(C(C)(C)C)nn2-c2cccc(OCCO)c2)c(Cl)c1=O` [Example 269, 1-{3-tert-butyl-1-[3-(2-hydroxyethoxy)phenyl]-1H-pyrazol-5-yl}-3-{2-[({3-chloro-6-methyl-1-[2-(methylthio)benzyl]-2-oxo-1,2-dihydropyridin-4-yl}oxy)methyl]benzyl}urea], the IC50 was determined as 20.4 nM.
On the same count and under the same terms, with `COc1ccccc1Cn1c(C)cc(OCc2ccccc2CNC(=O)Nc2cc(C(C)(C)C)nn2-c2ccc(O)c(Cl)c2)c(Cl)c1=O` [Example 248, 1-[3-tert-butyl-1-(3-chloro-4-hydroxyphenyl)-1H-pyrazol-5-yl]-3-[2-({[3-chloro-1-(2-methoxybenzyl)-6-methyl-2-oxo-1,2-dihydropyridin-4-yl]oxy}methyl)benzyl]urea] the figure was 15.1 nM; with `COC(=O)c1ccc(C)c(-n2c(C)cc(OCc3ccc(F)cc3CNC(=O)Nc3cc(C(C)(C)C)nn3-c3ccc(O)cc3)c(Cl)c2=O)c1` [Example 232, methyl 3-{4-[(2-{[({[3-tert-butyl-1-(4-hydroxyphenyl)-1H-pyrazol-5-yl]amino}carbonyl)amino]methyl}-4-fluorobenzyl)-oxy]-3-chloro-6-methyl-2-oxopyridin-1(2H)-yl}-4-methylbenzoate], 4.4 nM; with `COc1ccc(Cn2c(C)cc(OCc3ccccc3CNC(=O)Nc3cc(C(C)(C)C)nn3-c3cccc(OCCO)c3)c(C)c2=O)cc1C#N` [Example 250, 1-{3-tert-butyl-1-[3-(2-hydroxyethoxy)phenyl]-1H-pyrazol-5-yl}-3-[2-({[1-(3-cyano-4-methoxybenzyl)-3,6-dimethyl-2-oxo-1,2-dihydropyridin-4-yl]oxy}methyl)benzyl]urea], 8.4 nM.
In the case of `Cc1ccc(C(=O)NCC(N)=O)cc1-n1c(C)cc(OCc2ccccc2CNC(=O)Nc2cc(C(C)(C)C)nn2-c2ccc(O)c(Cl)c2)c(Cl)c1=O` [Example 233, N-(2-amino-2-oxoethyl)-3-{4-[(2-{[({[3-tert-butyl-1-(3-chloro-4-hydroxyphenyl)-1H-pyrazol-5-yl]amino}carbonyl)amino]-methyl}benzyl)oxy]-3-chloro-6-methyl-2-oxopyridin-1(2H)-yl}-4-methylbenzamide], the IC50 was found to be 1.5 nM.
The same measure, in the same setting: for `COC(=O)c1ccc(C)c(-n2c(C)cc(OCc3ccccc3CNC(=O)Nc3cc(C(C)(C)C)nn3-c3ccc(Cl)c(O)c3)c(Cl)c2=O)c1` [Example 221, methyl 3-{4-[(2-{[({[3-tert-butyl-1-(4-chloro-3-hydroxy-phenyl)-1H-pyrazol-5-yl]amino}carbonyl)amino]-methyl}-benzyl)oxy]-3-chloro-6-methyl-2-oxopyridin-1(2H)-yl}-4-methylbenzoate] the value was 10.5 nM; for `CSc1ccccc1Cn1c(C)cc(OCc2ccccc2CNC(=O)Nc2cc(C(C)(C)C)nn2-c2ccc(O)cc2)c(Cl)c1=O` [Example 268, 1-[3-tert-butyl-1-(4-hydroxyphenyl)-1H-pyrazol-5-yl]-3-{2-[({3-chloro-6-methyl-1-[2-(methylthio)benzyl]-2-oxo-1,2-dihydro-pyridin-4-yl}oxy)methyl]benzyl}urea], 23.6 nM.
As for `Cc1ccc(C(=O)NCC(O)CO)cc1-n1c(C)cc(OCc2ccccc2CNC(=O)Nc2cc(C(C)(C)C)nn2-c2ccc(O)cc2)c(Cl)c1=O` (centres unmarked) [Example 217, 3-{4-[(2-{[({[3-tert-butyl-1-(4-hydroxyphenyl)-1H-pyrazol-5-yl]amino}carbonyl)amino]methyl}benzyl)oxy]-3-chloro-6-methyl-2-oxopyridin-1(2H)-yl}-N-(2,3-dihydroxypropyl)-4-methylbenzamide], the IC50 was 1.5 nM.
On the same count and under the same terms, for `CSc1ccccc1Cn1c(C)cc(OCc2ccccc2CNC(=O)Nc2cc(C(C)(C)C)nn2-c2cccc(O)c2)c(Cl)c1=O` [Example 271, 1-[3-tert-butyl-1-(3-hydroxyphenyl)-1H-pyrazol-5-yl]-3-{2-[({3-chloro-6-methyl-1-[2-(methylthio)benzyl]-2-oxo-1,2-dihydropyridin-4-yl}oxy)methyl]benzyl}urea] the value was 14.1 nM; for `COc1cc(Cn2c(C)cc(OCc3ccccc3CNC(=O)Nc3cc(C(C)(C)C)nn3-c3ccc(Cl)c(O)c3)c(Cl)c2=O)ccc1Cl` [Example 256, 1-[3-tert-butyl-1-(4-chloro-3-hydroxyphenyl)-1H-pyrazol-5-yl]-3-[2-({[3-chloro-1-(4-chloro-3-methoxybenzyl)-6-methyl-2-oxo-1,2-dihydropyridin-4-yl]oxy}methyl)benzyl]urea], 19.9 nM.
Consider `CSc1ccccc1Cn1c(C)cc(OCc2ccccc2CNC(=O)Nc2cc(C(C)(C)C)nn2-c2cccc(O)c2)c(C)c1=O` [Example 278, 1-[3-tert-butyl-1-(3-hydroxyphenyl)-1H-pyrazol-5-yl]-3-{2-[({3,6-dimethyl-1-[2-(methylthio)benzyl]-2-oxo-1,2-dihydropyridin-4-yl}oxy)methyl]benzyl}urea], for which the IC50 was determined as 13.2 nM.
Take `COc1ccc(Cn2c(C)cc(OCc3ccccc3CNC(=O)Nc3cc(C(C)(C)C)nn3-c3ccc(Cl)c(O)c3)c(C)c2=O)cc1Cl` [Example 260, 1-[3-tert-butyl-1-(4-chloro-3-hydroxyphenyl)-1H-pyrazol-5-yl]-3-[2-({[1-(3-chloro-4-methoxybenzyl)-3,6-dimethyl-2-oxo-1,2-dihydropyridin-4-yl]oxy}methyl)benzyl]urea]: the IC50 was found to be 15.4 nM.
For the molecule `CSc1ccccc1Cn1c(C)cc(OCc2ccccc2CNC(=O)Nc2cc(C(C)(C)C)nn2-c2ccc(O)c(Cl)c2)c(Cl)c1=O` [Example 270, 1-[3-tert-butyl-1-(3-chloro-4-hydroxyphenyl)-1H-pyrazol-5-yl]-3-{2-[({3-chloro-6-methyl-1-[2-(methylthio)benzyl]-2-oxo-1,2-dihydropyridin-4-yl}oxy)methyl]benzyl}urea], the IC50 turned out to be 32.7 nM.
